# ChEMBL document CHEMBL1759996, “Design and synthesis of pyridin-2-yloxymethylpiperidin-1-ylbutyl amide CCR5 antagonists that are potent inhibitors of M-tropic (R5) HIV-1 replication” (Bioorg Med Chem Lett, 2011)
# pIC50: −log10 of the molar value.
# Experiments:
# [1] = target: C-C chemokine receptor type 5 (Homo sapiens, UniProt P51681); experiment: Displacement of […] from CCR5 expressed in HEK293F cells; type: cell-based
# [2] = tested on: Human immunodeficiency virus 1; experiment: Antiviral activity against Human immunodeficiency virus 1 BAL infected in human PBMC assessed as inhibition of viral replication by p24 antigen specific ELISA; type: functional, organism-based
# [3] = Cytotoxicity against human PBMC; type: cell-based
# [4] = Cmax in rat; type: ADME, organism-based; details: in vivo
# [5] = AUC (0 to infinity) in rat; type: ADME, organism-based; design: time infinity; details: plasma
# [6] = Clearance in rat at 10 umol/kg, iv; type: ADME, organism-based; details: in vivo
# [7] = Volume of distribution at steady state in rat at 10 umol/kg, iv; type: ADME, organism-based; details: in vivo, read-out: Vdss
# [8] = Half life in rat at 10 umol/kg, iv; type: ADME, organism-based; details: in vivo
# [9] = Oral bioavailability in rat at 100 umol/kg; type: ADME, organism-based; details: in vivo
# [10] = Cmax in dog; type: ADME, organism-based, Canis lupus familiaris; details: in vivo
# [11] = AUC (0 to infinity) in dog; type: ADME, organism-based, Canis lupus familiaris; design: time infinity; details: plasma
# [12] = Clearance in dog at 5 umol/kg, iv; type: ADME, organism-based, Canis lupus familiaris; details: in vivo
# [13] = Volume of distribution at steady state in dog at 5 umol/kg, iv; type: ADME, organism-based, Canis lupus familiaris; details: in vivo, read-out: Vdss
# [14] = Half life in dog at 5 umol/kg, iv; type: ADME, organism-based, Canis lupus familiaris; details: in vivo
# [15] = Oral bioavailability in dog at 12.5 umol/kg; type: ADME, organism-based, Canis lupus familiaris; details: in vivo
# C-C chemokine receptor type 5, sequence (P51681 whole entry): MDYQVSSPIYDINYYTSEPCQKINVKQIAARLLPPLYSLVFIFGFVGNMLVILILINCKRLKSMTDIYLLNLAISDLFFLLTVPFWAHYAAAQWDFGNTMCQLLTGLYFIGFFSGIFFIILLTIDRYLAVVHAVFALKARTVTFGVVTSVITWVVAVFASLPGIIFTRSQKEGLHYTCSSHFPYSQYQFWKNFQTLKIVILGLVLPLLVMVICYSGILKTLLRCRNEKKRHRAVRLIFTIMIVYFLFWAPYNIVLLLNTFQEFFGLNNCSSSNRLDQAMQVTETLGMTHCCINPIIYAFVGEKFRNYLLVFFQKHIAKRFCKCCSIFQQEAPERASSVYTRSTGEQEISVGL
Structure (SMILES),pIC50 [1],pIC50 [2],CC50 [3] [µM],also measured
CC(CCNC(=O)c1c(Cl)cncc1Cl)N1CCC(C(Oc2ncccc2Cl)c2ccc(C(F)(F)F)cc2)CC1 (mixture of isomers),6.85,7.10,16.7,
CCO/N=C(/c1ccc(Br)cc1)C1CCN(C(C)CCN(C)C(=O)c2c(C)cc[n+]([O-])c2C)CC1 (configuration not stated),5.25,< 4.44,> 183,
CC(CCNC(=O)c1c(Cl)cncc1Cl)N1CCC(C(Oc2cccc(C(=O)O)n2)c2ccc(C(F)(F)F)cc2)CC1 (mixture of isomers),,< 4.54,28.7,
COC(=O)c1cccc(OC(c2ccc(C(F)(F)F)cc2)C2CCN(C(C)CCNC(=O)c3c(Cl)cncc3Cl)CC2)n1 (mixture of isomers),5.98,6.28,14.6,
CC(CCNC(=O)c1c(Cl)cncc1Cl)N1CCC(C(Oc2cccc(Cl)n2)c2ccc(S(C)(=O)=O)cc2)CC1 (mixture of isomers),8.00,8.40,> 29.5,
CC(CCNC(=O)c1c(Cl)cncc1Cl)N1CCC(C(Oc2ccccn2)c2ccc(Br)cc2)CC1 (mixture of isomers),6.85,5.42,33.7,
Cc1ccnc(OC(c2ccc(C(F)(F)F)cc2)C2CCN(C(C)CCNC(=O)c3c(Cl)cncc3Cl)CC2)c1 (mixture of isomers),7.30,< 5.17,33.6,
CC(CCNC(=O)c1c(Cl)cncc1Cl)N1CCC(C(Oc2ccc(C(F)(F)F)cc2)c2ccc(C(F)(F)F)cc2)CC1 (mixture of isomers),,< 5.91,3.1,
CC(CCNC(=O)c1c(Cl)cncc1Cl)N1CCC(C(Oc2ccccc2)c2ccc(Br)cc2)CC1 (configuration not stated),6.89,< 5.89,31.7,
CC(CCNC(=O)c1c(Cl)cncc1Cl)N1CCC(C(=O)c2ccc(Br)cc2)CC1 (configuration not stated),,4.49,189,
Cc1cccc(OC(c2ccc(Br)cc2)C2CCN(C(C)CCNC(=O)c3c(Cl)cncc3Cl)CC2)n1 (mixture of isomers),6.66,5.81,6.5,
Cc1ccnc(OC(c2ccc(Br)cc2)C2CCN(C(C)CCNC(=O)c3c(Cl)cncc3Cl)CC2)c1 (mixture of isomers),6.85,5.71,32.5,
Cc1cccnc1OC(c1ccc(C(F)(F)F)cc1)C1CCN(C(C)CCNC(=O)c2c(Cl)cncc2Cl)CC1 (mixture of isomers),7.22,5.53,33,
CC(CCNC(=O)c1c(Cl)cncc1Cl)N1CCC(C2(c3ccc(C(F)(F)F)cc3)Oc3ccccc3O2)CC1 (configuration not stated),7.52,8.00,7.8,
CC(CCNC(=O)c1c(Cl)cncc1Cl)N1CCC(C(Oc2cccc(C(F)(F)F)n2)c2ccc(C(F)(F)F)cc2)CC1 (mixture of isomers),6.89,7.22,13.5,
COC(=O)c1cccc(OC(c2ccc(C(F)(F)F)cc2)C2CCN(C(C)CCNC(=O)c3c(Cl)cncc3Cl)CC2)c1 (mixture of isomers),,< 5.20,15.2,
CCO/N=C(/c1ccc(Br)cc1)C1CCN(C2(C)CCN(C(=O)c3c(C)cc[n+]([O-])c3C)CC2)CC1 [SCHERING C],7.40,6.80,> 1.6,Cmax [4]: 1600 nM; AUC(0-inf) [5]: 4.3 µM·h; clearance [6]: 31.7 mL/min/kg; Vd [7]: 7.2 L/kg; half-life [8]: 2.7 h; bioavailability [9]: 48%
Cc1ccc(OC(c2ccc(Br)cc2)C2CCN(C(C)CCNC(=O)c3c(Cl)cncc3Cl)CC2)nc1 (mixture of isomers),5.42,< 5.89,32.2,
CC(CCNC(=O)c1c(Cl)cncc1Cl)N1CCC(C(Oc2ccccc2C(F)(F)F)c2ccc(C(F)(F)F)cc2)CC1 (mixture of isomers),,7.00,12.5,
CC(CCNC(=O)c1c(Cl)cncc1Cl)N1CCC(C(Oc2ccccc2)c2ccc(C(F)(F)F)cc2)CC1 (mixture of isomers),7.30,5.90,6.8,
CCO/N=C(/c1ccc(Br)cc1)C1CCN(C(C)CNC(=O)c2c(C)cc[n+]([O-])c2C)CC1 (configuration not stated),4.77,< 4.44,182,
CCO/N=C(/c1ccc(Br)cc1)C1CCN(C(C)(C)CCNC(=O)c2c(Cl)cncc2Cl)CC1,5.75,< 5.17,34,
CCO/N=C(/c1ccc(Br)cc1)C1CCN(C2(CCNC(=O)c3c(Cl)cncc3Cl)CC2)CC1,4.67,< 5.18,33,
CC(CCNC(=O)c1c(Cl)cncc1Cl)N1CCC(C(Oc2cc(Cl)ccn2)c2ccc(C(F)(F)F)cc2)CC1 (mixture of isomers),7.15,6.37,4.26,

Structure (SMILES),pIC50 [1],pIC50 [2],CC50 [3] [µM],also measured
CCO/N=C(/c1ccc(Br)cc1)C1CCN(CCCNC(=O)c2c(C)cc[n+]([O-])c2C)CC1,6.74,< 5.82,7.5,
CC(CCNC(=O)c1c(Cl)cncc1Cl)N1CCC(C(Oc2ccccc2Cl)c2ccc(C(F)(F)F)cc2)CC1 (mixture of isomers),6.92,< 5.90,4.4,
CC(CCNC(=O)c1c(Cl)cncc1Cl)N1CCC(C(Oc2cccnc2)c2ccc(Br)cc2)CC1 (mixture of isomers),6.01,5.48,32.5,
Cc1cccc(OC(c2ccc(C(F)(F)F)cc2)C2CCN(C(C)CCNC(=O)c3c(Cl)cncc3Cl)CC2)n1 (mixture of isomers),7.40,6.77,6.7,
CC(CCNC(=O)c1c(Cl)cncc1Cl)N1CCC(C(Oc2ccccc2C#N)c2ccc(C(F)(F)F)cc2)CC1 (mixture of isomers),7.00,5.54,17,
CCO/N=C(/c1ccc(Br)cc1)C1CCN(C(C)CCNC(=O)c2c(Cl)cncc2Cl)CC1 (configuration not stated),6.89,< 5.17,33.8,
CC(CCNC(=O)c1c(Cl)cncc1Cl)N1CCC(C(Oc2ccccn2)c2ccc(C(F)(F)F)cc2)CC1 (mixture of isomers),7.52,6.89,34.1,
CC(CCNC(=O)c1c(Cl)cncc1Cl)N1CCC(C(Oc2cccc(C(F)(F)F)c2)c2ccc(C(F)(F)F)cc2)CC1 (mixture of isomers),,7.52,7,
CC(CCNC(=O)c1c(Cl)cncc1Cl)N1CCC(C2=NOCc3cc(Br)ccc32)CC1 (configuration not stated),4.91,< 5.13,185,
CC(CCNC(=O)c1c(Cl)cncc1Cl)N1CCC(N(Cc2ccccc2)c2ccc(Br)cc2)CC1 (configuration not stated),7.52,6.66,4.28,
COc1cccc(OC(c2ccc(C(F)(F)F)cc2)C2CCN(C(C)CCNC(=O)c3c(Cl)cncc3Cl)CC2)n1 (mixture of isomers),,< 5.89,32.7,
CCO/N=C(/c1ccc(Br)cc1)C1CCN(C(CC)CCNC(=O)c2c(C)cc[n+]([O-])c2C)CC1 (configuration not stated),,< 4.48,> 178,
CC(CCNC(=O)c1c(Cl)cncc1Cl)N1CCC(C(Oc2ccncc2)c2ccc(Br)cc2)CC1 (mixture of isomers),,< 6.62,31.2,
Cc1cccnc1OC(c1ccc(Br)cc1)C1CCN(C(C)CCNC(=O)c2c(Cl)cncc2Cl)CC1 (mixture of isomers),6.72,6.47,32.1,
CC(CCNC(=O)c1c(Cl)cncc1Cl)N1CCC(C(Oc2cccc(C#N)n2)c2ccc(C(F)(F)F)cc2)CC1 (mixture of isomers),7.40,8.05,15.7,
CC(CCNC(=O)c1c(Cl)cncc1Cl)N1CCC(C(Oc2cccc(Cl)n2)c2ccc(C(F)(F)F)cc2)CC1 (mixture of isomers),7.70,8.05,> 32.5,Cmax [4]: 200 nM; Cmax [10]: 100 nM; AUC(0-inf) [5]: 2.4 µM·h; AUC(0-inf) [11]: 0.5 µM·h; clearance [6]: 142 mL/min/kg; clearance [12]: 31.7 mL/min/kg; Vd [7]: 15.2 L/kg; Vd [13]: 20.8 L/kg; half-life [8]: 1.2 h; half-life [14]: 7.7 h; bioavailability [9]: 20%; bioavailability [15]: 6%
CCO/N=C(/c1ccc(Br)cc1)C1CCN(C(C)CCNC(=O)c2c(C)cc[n+]([O-])c2C)CC1 (configuration not stated),6.54,5.60,> 178,
CC(CCNC(=O)c1c(Cl)cncc1Cl)N1CCC(C(Oc2cccc(Cl)c2)c2ccc(C(F)(F)F)cc2)CC1 (mixture of isomers),7.22,7.15,8.1,
CC(CCNC(=O)c1c(Cl)cncc1Cl)N1CCC(C(Oc2cccc(Cl)n2)c2ccc(OC(F)(F)F)cc2)CC1 (mixture of isomers),7.52,8.70,6,
CC(CCNC(=O)c1c(Cl)cncc1Cl)N1CCC(C(Oc2cccc(F)c2)c2ccc(C(F)(F)F)cc2)CC1 (mixture of isomers),7.40,6.64,5.4,
CC(CCNC(=O)c1c(Cl)cncc1Cl)N1CCC(C2(c3ccc(C(F)(F)F)cc3)Cc3ccccc3O2)CC1 (configuration not stated),7.40,6.66,33.8,
CC(CCNC(=O)c1c(Cl)cncc1Cl)N1CCC(C(Oc2cccc(C#N)c2)c2ccc(C(F)(F)F)cc2)CC1 (mixture of isomers),7.30,6.32,15.7,
CCO/N=C(/c1ccc(Br)cc1)C1CCN(CCNC(=O)c2c(C)cc[n+]([O-])c2C)CC1,,< 4.41,196,
CC(CCNC(=O)c1c(Cl)cncc1Cl)N1CCC(C(O)c2ccc(Br)cc2)CC1 (configuration not stated),5.47,< 4.40,198,
